The source of these data is US12416052B2, “Capturing, concentrating, and detecting microbes in a sample using magnetic ionic liquids and recombinase polymerase amplification” (priority 2019, dated 2025).

In data set [1] the test system is S. enterica subsp. houtenae. Description: MIL-based whole-cell extraction. Set-up: species or system Salmonella enterica. Conditions: 1×10^6 CFU mL^−1 in TSB, 15 μL MIL. On the procedure: (§1) A universal schematic for MIL-based cell extraction is depicted in FIG. 7B. A 1 mL volume of diluted cell suspension was added to a flat-bottomed 4-mL screw cap glass vial. Fifteen microliters of either the Ni(II) or Dy(III) MIL was added and dispersed into microdroplets by vortex agitation for 30 s. The aqueous phase was decanted following dispersive extraction, and the MIL was subjected to a brief wash step using 1 mL of nuclease-free water (Integrated DNA Technologies, Coralville, IA, USA) to ensure adequate removal of loosely or incidentally bound cells. After washing, release of viable cells from the MIL extraction phase was carried out using a “back-extraction” step accomplished through addition of 1 mL of an ionically-rich nutritive medium comprised of 20 g L^−1 tryptone and 10 g L^−1 NaCl, followed by a 120 s vortex step. After back-extraction, aliquots of the cell-enriched back-extraction medium were enumerated using the track dilution method using 100×100 mm square, gridded TSA, BSA, CA or VRBGA plates.
(§2) Following back-extraction, aliquots of the cell-enriched back-extraction medium were serially diluted in 0.1% peptone water and a 10 μL aliquot of each dilution was applied to a separate lane on square plates containing an appropriate agar medium. The plates were then tilted at an approximately 80° angle for 15 min to allow the droplets to travel toward the opposite end of the plate. The plates were incubated for 24 h at 37° C. (TSA, VRBGA), for 48 h at 37° C. (BSA) or for 24 h at 37° C. (CA). Colonies were counted and colony forming units (CFU) were determined. The enrichment factor (EF) for MIL-based extraction was calculated using Equation 1, where CMIL represents the concentration of bacteria in suspension following extraction using the MIL and CS is the initial concentration of bacteria in the sample.
(§3) In order to explore the broader utility of our approach, evaluation of additional cell types is needed. We began this extended evaluation of the Ni(II) MIL with seven representative DNA subgroups of Salmonella and eight strains of E. coli O157:H7. Briefly, a 1 mL aliquot of TSB was inoculated with 1×10^6 CFU mL^−1 of bacteria, and spiked with 15 μL of the Ni(II) MIL. MIL-based extraction was performed and 10 μL aliquots of the back-extraction solution were enumerated using TSA and BSA plates (Salmonella) or TSA plates (E. coli O157:H7). […] We later determined that VRBGA was a suitable common medium for this purpose and used this in our statistical analysis. Average CFU counts were compared to standards that were not exposed to the Ni(II) MIL. Enrichment factors were calculated for Salmonella on both non-selective (TSA) and selective agars (BSA) and for E. coli O157:H7 on non-selective agar (TSA). […] Note: As BSA is a Salmonella-specific agar E. coli O157:H7 was not plated to BSA in this example.

Data set [2] relates to S. enterica subsp. indica. Put plainly: MIL-based whole-cell extraction. As to conditions: 1×10^6 CFU mL^−1 in TSB, 15 μL MIL. Set-up: species or system Salmonella enterica. As for the experimental part: as §1, §2, §3
Data set [3] relates to S. enterica subsp. salamae. Put plainly: MIL-based whole-cell extraction. Further details: species or system Salmonella enterica. Conditions: 1×10^6 CFU mL^−1 in TSB, 15 μL MIL. As for the experimental part: as §1, §2, §3
Data set [4] deals with S. typhimurium ATCC 14028. Put plainly: Exposure of cells and plating on non-selective (TSA) and selective (BSA) agar (viability, injury, toxicity). The data set is classed as cell-based, Salmonella enterica. As to conditions: exposure 0 to 15 min, 15 μL MIL. As for the experimental part: To examine whether exposure time to the Ni(II) MIL affected cell viability, MIL-based whole-cell extraction was performed using the Ni(II) MIL, and cell-enriched back-extraction media were enumerated at 0, 5, 10 and 15 min on both TSA and BSA. To evaluate toxicity of the [EMIM^+][SCN^−] IL, one milliliter of diluted S. typhimurium ATCC 14028 cell suspension was added to a 4-mL screw cap glass vial. A 5% (vol/vol) or 50% (vol/vol) aqueous solution of 1-ethyl-3-methylimidazolium thiocyanate (“[EMIM^+][SCN^−]”) (IoLiTec, Tuscaloosa, AL, USA) was added and mixed by vortexing for 30 s. Aliquots were enumerated at 0, 5, 10 and 15 min using TSA and BSA.
One milliliter of diluted S. typhimurium ATCC 14028 cell suspension was added to a 4-mL screw cap glass vial. Fifteen microliters of either the Dy(III) MIL or 2-10 μL of 100 mM DyCh solution or 10 mg of the ammonium tetra(hexafluoroaceto)dysprosium salt (15) ([NH4^+][Dy(hfacac)4^−]) (“Dy(III) ammonium salt”) was added and dispersed by vortex agitation for 30 s. Aliquots of the Dy(III) MIL- or Dy(III) ammonium salt-exposed cell suspension were enumerated using square TSA or BSA plates (BD).
Because culture-based methods depend on sample preparation steps that preserve bacterial viability, potential deleterious cytotoxic effects imparted by MIL extractants must be considered. To begin our further study of MIL-bacterial interactions, we selected S. typhimurium ATCC 14028 as a model gram-negative pathogen and the Ni(II) MIL as extractant. Briefly, a 1 mL aliquot of TSB was inoculated with 1×10^5 CFU mL^−1 of bacteria and spiked with 15 μL of the Ni(II) MIL, and the general schematic for MIL-based extraction and recovery followed as shown in FIG. 7B. After extraction, 10 μL aliquots of the back-extraction solution were enumerated at 0, 5, 10 and 15 min using TSA and BSA. Average CFU counts were compared to a standard that was not exposed to the Ni(II) MIL. […] To better understand the data in FIG. 8, statistical analyses of Ni(II) MIL capture precision and CFU count variation as a function of MIL exposure time were performed. Variation in MIL capture may stem from inherent randomness of MIL dispersion and coalescence behaviors.
The effects of 5% or 50% (vol/vol) aqueous solutions of the [EMIM^+][SCN^−] IL on the viability of the cells were also evaluated. Average CFU counts were compared to a standard not exposed to [EMIM^+][SCN^−]. In our hands, when S. typhimurium was exposed to 50% (vol/vol) solutions of [EMIM^+][SCN^−], no recovery was observed on either TSA or BSA after 5 min of exposure.
To gain further insight into this phenomenon, the effect of free elemental dysprosium was evaluated by subjecting the cells to 0.1 mM and 1.0 mM solutions of DyCl3. The cells were exposed to the metal salt solutions for 30 s and subsequently plated on selective and non-selective media.
While the metal did show cytotoxicity, it cannot be completely responsible for the Dy(III) MIL's effect on the cells, as no flocculation was seen and growth was still observed. Since both the Ni(II) and the Dy(III) MILs contain identical cations ([P6,6,6,14^+]), the role of the anion structure was evaluated. The anion of the Dy(III) MIL contains one additional hexafluoroacetylacetonate ligand than the Ni(II) MIL (FIG. 7), making the coordination geometry of the two complexes different. To test the effects of the anion structure, cells were subjected to 10 mg of the Dy(III) ammonium salt. After a 30 second vortex, similar flocculation was observed as when the cells were exposed to the native Dy(III) MIL.

Entries after “also recorded” stand apart in the source; their conditions may differ.

As to `CCCCCCCCCCCCCC[P+](CCCCCC)(CCCCCC)CCCCCC.O=C([CH-]C(=O)C(F)(F)F)C(F)(F)F.O=C([CH-]C(=O)C(F)(F)F)C(F)(F)F.O=C([CH-]C(=O)C(F)(F)F)C(F)(F)F.[Ni+2]` [Ni(II) MIL, [P66614^+][Ni(hfacac)3^−]], the “Enrichment Factor (BSA)” value was determined as 8 in data set [1], 4 in data set [2] and 9 in data set [3]. The “Enrichment Factor (TSA)” value in data set [1] is given as 8; in data set [2], 3; in data set [3] it was 12. Also, the “injury to S. typhimurium: average CFU counts on TSA and BSA” value in data set [4] was “did not cause detectable injury; also recorded: appeared to be similar”.
